Reference: patent publication US20220233708A1, “ANTIBODY-DRUG CONJUGATE, INTERMEDIATE THEREOF, PREPARATION METHOD THEREFOR AND APPLICATION THEREOF” (priority 2019, published 2022)
Starred links: 1 amine or outer side, 2 acyl side, 3 side chain; linkers in the order of their positions; H or OH if unused. Non-standard residues stand in square brackets, D forms with d. Residues, ends and D or L forms follow the SMILES beside them. *: point of attachment. Exatecan = CC[C@@]1(O)C(=O)OCc2c1cc1n(c2=O)Cc2c-1nc1cc(F)c(C)c3c1c2[C@@H](N*)CC3; X2 = CC[C@@]1(O)C(=O)OC(=O)C2=C1C=C1c3nc4cc(F)c(C)c5c4c(c3CN1C2)[C@@H](N*)CC5; Hexanoyl(6-maleimido) = O=C1C=CC(=O)N1CCCCCC(=O)*; X3 = O=C1C=CC(=O)N1CC1CCC(C(=O)*)CC1; X1 = O=C1C=C(Br)C(=O)N1CCCCCC(=O)*; NHCH2OCH2CO = O=C(COCN[*:1])[*:2]

Columns and labels:
[1] = system: anti-Claudin18.2 antibody IMAB362; test: Coupling of linker-drug conjugates with IMAB362; assay type: physicochemical; settings: coupling with IMAB362, highest DAR (excessive coupling)
Procedure: (§1) The anti-B7-H3 antibody P2E5, anti-Claudin18.2 antibody IMAB362, and anti-HER2 antibody Trastuzumab (concentration was 15 mg/mL) were replaced into 50 mM PB/1.0 mM EDTA buffer (pH 7.0) by a G25 desalting column, respectively. 12 equivalents of TECP was added and the mixture was stirred at 37° C. for 2 hours to fully open the disulfide bonds between the antibody chains. Then phosphoric acid was used to adjust the pH of the reduced antibody solution to 6.0, and the temperature of the water bath was lowered to 25° C. for coupling reaction. […] After the reaction was completed, the sample was filtered with a 0.22 μm membrane. Uncoupled small molecules were purified and removed by a tangential flow ultrafiltration system. The buffer was 50 mM PB/1.0 mM EDTA solution (pH 6.0). After purification, sucrose (final concentration was 6%) was added, and the mixture was stored in a refrigerator at −20° C. The UV method was used to measure the absorbance values at 280 nm and 370 nm respectively, and the DAR value was calculated.

anti-B7-H3 antibody P2E5 = test: Coupling of linker-drug conjugates with P2E5; assay type: physicochemical; settings: coupling with P2E5, highest DAR (excessive coupling)
Procedure: as §1

[2] = system: anti-HER2 antibody Trastuzumab; test: Coupling of linker-drug conjugates with Trastuzumab; assay type: physicochemical; settings: highest DAR (excessive coupling)
Procedure: as §1

cathepsin B = cathepsin B (Homo sapiens, UniProt P07858); test: In vitro enzyme cleavage experiment of linker-drug conjugates; assay type: in vitro ADME; settings: pH 5.0 to pH 7.0
Procedure: Linker-drug conjugates (LE14 and GGFG-Dxd) and cathepsin B were incubated in three different pH (5.0, 6.0, 7.0) buffers, and samples were taken at different time points into the high performance liquid chromatography-mass spectrometer. The release percentage of the drug was determined by external standard method (with Dxd as the external standard).

| Compound | Ratio of aggregates [1] [%] | Whether precipitation [1] | Ratio of aggregates (anti-B7-H3 antibody P2E5) [%] | Whether precipitation (anti-B7-H3 antibody P2E5) | Ratio of aggregates [2] [%] | Whether precipitation [2] | Enzyme cleavage speed (in words) (cathepsin B) |
| --- | --- | --- | --- | --- | --- | --- | --- |
| CC[C@@]1(O)C(=O)OCc2c1cc1n(c2=O)Cc2c-1nc1cc(F)c(C)c3c1c2[C@@H](NC(=O)COCNC(=O)CNC(=O)[C@H](Cc1ccccc1)NC(=O)CNC(=O)CNC(=O)C1CCC(CN2C(=O)C=CC2=O)CC1)CC3 (stereo partly shown) [LE01] (X3-GGFG[NHCH2OCH2CO]-Exatecan) | 2.0 | No | 2.1 | No | 0.2 | No |  |
| CCC1(O)C(=O)OC(=O)C2=C1C=C1c3nc4cc(F)c(C)c5c4c(c3CN1C2)C(NC(=O)COCNC(=O)CNC(=O)C(Cc1ccccc1)NC(=O)CNC(=O)CNC(=O)C(CCCCN1C(=O)C=CC1=O)S(=O)(=O)O)CC5 (stereo not shown) [LE02] | 1.8 | No | 1.3 | No | 0.2 | No |  |
| CCC1(O)C(=O)OC(=O)C2=C1C=C1c3nc4cc(F)c(C)c5c4c(c3CN1C2)C(NC(=O)COCNC(=O)CNC(=O)C(Cc1ccccc1)NC(=O)CNC(=O)CNC(=O)C(CN)N1C(=O)C=CC1=O)CC5 (stereo not shown) [LE03] | 1.5 | No | 1.1 | No | 0.2 | No |  |
| CCC1(O)C(=O)OC(=O)C2=C1C=C1c3nc4cc(F)c(C)c5c4c(c3CN1C2)C(NC(=O)COCNC(=O)CNC(=O)C(Cc1ccccc1)NC(=O)CNC(=O)CNC(=O)CCOCCOCCOCCOCCOCCOCCOCCOCCN1C(=O)C=CC1=O)CC5 (stereo not shown) [LE04] | 2.1 | No | 2.5 | No | 0.1 | No |  |
| CC[C@@]1(O)C(=O)OCc2c1cc1n(c2=O)Cc2c-1nc1cc(F)c(C)c3c1c2[C@@H](NC(=O)COCNC(=O)CNC(=O)[C@H](Cc1ccccc1)NC(=O)CNC(=O)CNC(=O)CCCCCN1C(=O)C=C(Br)C1=O)CC3 [LE05] (X1-GGFG[NHCH2OCH2CO]-Exatecan) | 2.3 | No | 1.6 | No | 0.1 | No |  |
| CC[C@@]1(O)C(=O)OC(=O)C2=C1C=C1c3nc4cc(F)c(C)c5c4c(c3CN1C2)[C@@H](NC(=O)COCNC(=O)CNC(=O)[C@H](Cc1ccccc1)NC(=O)CNC(=O)CNC(=O)[C@H](CCCCN)NC(=O)CCCCCN1C(=O)C=CC1=O)CC5 [LE06] ({Hexanoyl(6-maleimido)}-KGGFG[NHCH2OCH2CO]-X2) | 1.7 | No | 1.2 | No | 0.5 | No |  |
| CC[C@@]1(O)C(=O)OCc2c1cc1n(c2=O)Cc2c-1nc1cc(F)c(C)c3c1c2[C@@H](NC(=O)COCNC(=O)CNC(=O)[C@H](Cc1ccccc1)NC(=O)CNC(=O)[C@H](CCCCN)NC(=O)CCCCCN1C(=O)C=CC1=O)CC3.O=C(O)C(F)(F)F [LE07] ({Hexanoyl(6-maleimido)}-KGFG[NHCH2OCH2CO]-Exatecan) | 1.6 | No | 1.3 | No | 0.5 | No |  |
| CC[C@@]1(O)C(=O)OC(=O)C2=C1C=C1c3nc4cc(F)c(C)c5c4c(c3CN1C2)[C@@H](NC(=O)COCN(CCN(C)C)C(=O)OCc1ccc(NC(=O)[C@H](C)NC(=O)[C@@H](NC(=O)CCCCCN2C(=O)C=CC2=O)C(C)C)cc1)CC5 [LE13] | 2.3 | No | 1.5 | No | 0.1 | No |  |
| CC[C@@]1(O)C(=O)OC(=O)C2=C1C=C1c3nc4cc(F)c(C)c5c4c(c3CN1C2)[C@@H](NC(=O)COCN(CCS(C)(=O)=O)C(=O)OCc1ccc(NC(=O)[C@H](C)NC(=O)[C@@H](NC(=O)CCCCCN2C(=O)C=CC2=O)C(C)C)cc1)CC5 [LE14] | 2.5 | No | 1.3 | No | 0.3 | No | could quickly cleave |
| CC[C@@]1(O)C(=O)OC(=O)C2=C1C=C1c3nc4cc(F)c(C)c5c4c(c3CN1C2)[C@@H](NC(=O)COCN(CCS(C)(=O)=O)C(=O)OCc1ccc(NC(=O)[C@H](C)NC(=O)[C@@H](NC(=O)C(CCCCN2C(=O)C=CC2=O)S(=O)(=O)O)C(C)C)cc1)CC5 (stereo partly shown) [LE15] | 1.6 | No | 2.1 | No | 0.2 | No |  |
| CC[C@@]1(O)C(=O)OC(=O)C2=C1C=C1c3nc4cc(F)c(C)c5c4c(c3CN1C2)[C@@H](NC(=O)COCN(CCS(C)(=O)=O)C(=O)OCc1ccc(NC(=O)[C@H](C)NC(=O)[C@@H](NC(=O)C2CCC(CN3C(=O)C=CC3=O)CC2)C(C)C)cc1)CC5 (stereo partly shown) [LE16] | 1.5 | No | 2.0 | No | 0.5 | No |  |
| CC[C@@]1(O)C(=O)OC(=O)C2=C1C=C1c3nc4cc(F)c(C)c5c4c(c3CN1C2)[C@@H](NC(=O)COCN(CCN(C)C)C(=O)OCc1ccc(NC(=O)[C@H](C)NC(=O)[C@@H](NC(=O)C2CCC(CN3C(=O)C=CC3=O)CC2)C(C)C)cc1)CC5 (stereo partly shown) [LE17] | 1.6 | No | 1.5 | No | 0.1 | No |  |
| CC[C@@]1(O)C(=O)OC(=O)C2=C1C=C1c3nc4cc(F)c(C)c5c4c(c3CN1C2)[C@@H](NC(=O)COCN(CCS(C)(=O)=O)C(=O)OCc1ccc(NC(=O)[C@H](C)NC(=O)[C@@H](NC(=O)CCCn2cc(CNC3CCC(CN4C(=O)C=CC4=O)CC3)nn2)C(C)C)cc1)CC5 (stereo partly shown) [LE18] | 2.1 | No | 1.6 | No | 0.1 | No |  |
| CC[C@@]1(O)C(=O)OC(=O)C2=C1C=C1c3nc4cc(F)c(C)c5c4c(c3CN1C2)[C@@H](NC(=O)COCN(CCS(C)(=O)=O)C(=O)OCc1ccc(NC(=O)[C@H](C)NC(=O)[C@@H](NC(=O)CCCn2cc(CNC(=O)CCCCCN3C(=O)C=CC3=O)nn2)C(C)C)cc1)CC5 [LE19] | 1.4 | No | 1.2 | No | 0.2 | No |  |
| CC[C@@]1(OCN(CCS(C)(=O)=O)C(=O)OCc2ccc(NC(=O)[C@H](C)NC(=O)[C@@H](NC(=O)CCCCCN3C(=O)C=CC3=O)C(C)C)cc2)C(=O)OCc2c1cc1n(c2=O)Cc2c-1nc1cc(F)c(C)c3c1c2[C@@H](NC(=O)CO)CC3 [LE21] | 2.3 | No | 2.2 | No | 0.2 | No |  |
| CC[C@@]1(OCN(CCN(C)C)C(=O)OCc2ccc(NC(=O)[C@H](C)NC(=O)[C@@H](NC(=O)CCCCCN3C(=O)C=CC3=O)C(C)C)cc2)C(=O)OCc2c1cc1n(c2=O)Cc2c-1nc1cc(F)c(C)c3c1c2[C@@H](NC(=O)CO)CC3 [LE22] | 1.5 | No | 2.1 | No | 0.5 | No |  |
| CC[C@@]1(O)C(=O)OCc2c1cc1n(c2=O)Cc2c-1nc1cc(F)c(C)c3c1c2[C@@H](NC(=O)COCNC(=O)CNC(=O)[C@H](Cc1ccccc1)NC(=O)[C@H](C)NC(=O)[C@@H](NC(=O)CCCCCN1C(=O)C=CC1=O)C(C)C)CC3 [LE23] ({Hexanoyl(6-maleimido)}-VAFG[NHCH2OCH2CO]-Exatecan) | 1.6 | No | 1.9 | No | 0.1 | No |  |
| CC[C@@]1(O)C(=O)OCc2c1cc1n(c2=O)Cc2c-1nc1cc(F)c(C)c3c1c2[C@@H](NC(=O)COCNC(=O)CNC(=O)[C@H](Cc1ccccc1)NC(=O)[C@H](CS)NC(=O)[C@@H](NC(=O)CCCCCN1C(=O)C=CC1=O)C(C)C)CC3 [LE24] ({Hexanoyl(6-maleimido)}-VCFG[NHCH2OCH2CO]-Exatecan) | 2.0 | No | 1.2 | No | 0.1 | No |  |
